Reference: PMC4267622, “Pin1-mediated Sp1 phosphorylation by CDK1 increases Sp1 stability and decreases its DNA-binding activity during mitosis” (Nucleic Acids Research, 2014)

Tests used:
[1] = test system: Sp1-binding probe of p21^WAF1/CIP1 promoter; experiment: DNA affinity precipitation assay (DAPA); details: 4°C, 1 h
Experimental: Cell lysate incubated with 1 μg of binding probes in 500 μl binding of buffer (2 mM MgCl2, 60 mM KCl, 20 mM Tris-HCl pH 7.8, 5% glycerol, 0.5 mM EDTA and 0.02% NP-40). After incubation for 1 h at 4°C, the mixture was incubated with 30 μl of streptavidin-agarose beads (GE Healthcare Life Sciences) for 1 h at 4°C. The mixture was washed three times by binding buffer. The proteins in the beads were eluted by 2X sample buffer and analysed by SDS-PAGE and immunoblotting. The Sp1-binding probe 5′-[…]-3′, localized from −82 to −50 bp within the promoter of p21^WAF1/CIP1, was biotinylated at 5′ termini and then annealed with complementary strands.

Pin1 [2] = experiment: Co-localization of Sp1 and Pin1 by immunofluorescence in sub-mitotic stages; type: cell-based; details: HeLa
Experimental: The cells were fixed with 4% paraformaldehyde (Sigma-Aldrich) in PBS according to a method described previously ([3]). Immunostaining was conducted with primary antibodies such as anti-Sp1, anti-GFP tag (Santa Cruz Biotechnology, Santa Cruz, CA), or anti-Pin1 (Calbiochem, San Diego, CA) antibodies. The cells were then treated with Alexa Fluor 488-conjugated goat anti-mouse or rabbit immunoglobulin G (IgG) and Alexa Fluor 568-conjugated goat anti-mouse or rabbit IgG polyclonal antibodies (Jackson ImmunoResearch Laboratories Inc., West Grove, PA). Finally, the cells were mounted in 90% glycerol containing 4'-6-diamidino-2-phenylindole (DAPI) (Invitrogen), and examined using a confocal laser-scanning microscope (FluoView^TM FV 1000; Olympus, Melville, NY) or immunofluorescence microscope (Personal DV Applied Precision, Issaquah, WA). The images were analysed with softWoRx software (Applied Precision Inc.).

mitotic Sp1 = experiment: GST-Pin1 pull-down with HeLa lysates; type: binding; details: mitotic HeLa lysate; for interaction with phospho-Sp1(T739): antibody against phospho-Sp1 (T739)
Experimental: (§1) The mixture was incubated with shaking for 1 h at 4°C. The beads were washed three times in NETN buffer and added to the interphase or mitotic cell extract. The reaction mixture was incubated on ice for 1 h. The beads were then washed in NETN buffer. Proteins were eluted by sample buffer and separated by SDS- PAGE.

CDK1/cyclin B1 = experiment: In vitro CDK1/cyclin B1 kinase assay; type: biochemical; details: 15 min; for effect on CDK1-mediated Sp1 phosphorylation: substrate GST-Sp1 (619–785), [γ-^32P] ATP, 30°C; for phosphorylation by CDK1 (as substrate): 1 μg Sp1 protein, 50 ng CDK1/cyclin B1, 30°C
Experimental: For the in vitro phosphorylation analysis, the GST-Sp1(619-785), GST-Sp1(619-785)-T739A, GST-Sp1(619-785)-T739D, GST-Sp1(619-785)-P6, GST-Sp1(619-785)-Z12, GST-Sp1(619-715) or GST-Sp1(619-740) were purified from Escherichia coli BL21 (DE3). These different Sp1 proteins and active CDK1/cyclin B1 (New England Biolabs, Beverly, MA) were used to examine Sp1 phosphorylation in vitro. Each reaction (20 μl) contained 1 μg of purified Sp1, 50 ng of active CDK1/cyclin B1, 2 μCi of [γ-^32P] ATP (GE Healthcare Life Sciences), 1 mM ATP (New England Biolabs) and […] of 10× kinase buffer containing 500 mM HEPES pH 7.4, 10 mM MgCl2, 1 mM EGTA and 1 mM dithiothreitol. The phosphorylation reactions were incubated at 30°C for 15 min. After the incubation, one-half of the reaction was added to 10 μl of 2×electrophoresis sample buffer, which was then heated to 95°C for 5 min. Proteins in the mixtures were immediately separated using SDS-polyacrylamide gel electrophoresis (PAGE).

Pin1 [3] = experiment: Pin1 interaction of Sp1 mutants (anti-Pin1 immunoprecipitation / pull-down); type: binding; details: mitotic HeLa lysates / pull-down
Experimental: Cell lysates were prepared by using mRIPA buffer (50 mM Tris-HCl, pH 7.8, 150 mM NaCl, 5 mM ethylenediaminetetraacetic acid (EDTA), 0.1% Triton-X100, 0.05% NP-40). The lysates were incubated with anti-Sp1 (1:500), anti-CDK1 (1:200), anti-Pin1 (1:250), anti-HA tag (1:250), or anti-GFP tag (1:200) antibodies at 4°C for 1 h. After 1 h incubation, the mixture was incubated with Protein A or G Sepharose agarose beads at 4°C for 1 h. The beads were collected and washed three times by mRIPA buffer. The beads were added 2X electrophoresis sample buffer and analysed by immunoblotting.
as §1

HeLa cells = experiment: Flow cytometry with PI staining (cell cycle); type: cell-based; details: nocodazole 16 h
Experimental: The cells washed by cold PBS and then fixed in 70% alcohol or 4% paraformaldehyde at 4°C for 2 h. After fixation, the cells washed by cold PBS and treated with 0.1% TritonX-100, 10μg/ml RNase and 50 μg/ml propidium iodide for 1 h. The cells were analysed by flow cytometer (Cell Lab Quanta™ SC; Beckman Coulter or FACSCalibur; BD Biosciences).

[4] = molecular target: Pin1 (purified, used in ITC) (UniProt Q13526); experiment: ITC; Sp1 peptide (900 mM [sic]) titrated into Pin1 (60 mM [sic]) in the cell; 10 mM HEPES pH 7.5, 100 mM NaCl, 1 mM DTT; 25°C; MicroCal iTC200
Pin1 [5] = molecular target: Pin1 (UniProt Q13526); experiment: co-IP with anti-Pin1, Sp1 blot; details: reference: GFP-Sp1 wild type; sites T739
JNK1 = experiment: In vitro kinase assay with JNK1; type: biochemical; details: substrate GST-Sp1(619-785)
Pin1 [6] = molecular target: Pin1 (UniProt Q13526); experiment: isothermal titration calorimetry; details: reference: Thr739-Sp1 peptide (unphosphorylated); sites T739
GST-Sp1(619-785) = GST-Sp1(619-785) (UniProt P08047 619-785); experiment: DAPA (streptavidin pull-down); DAPA: 1 ug probe in 500 ul 20 mM Tris-HCl pH 7.8, 60 mM KCl, 2 mM MgCl2, 0.5 mM EDTA, 5% glycerol, 0.02% NP-40; 1 h at 4 C, then streptavidin-agarose 1 h at 4 C; details: protein: recombinant; tags: GST; label: 5' biotin on S1 strand; blunt
GST-Sp1(619-785)-T739D = GST-Sp1(619-785)-T739D (UniProt P08047 619-785, T739D); experiment: DAPA (streptavidin pull-down); no significant difference from GST-Sp1(619-785); DAPA: 1 ug probe in 500 ul 20 mM Tris-HCl pH 7.8, 60 mM KCl, 2 mM MgCl2, 0.5 mM EDTA, 5% glycerol, 0.02% NP-40; 1 h at 4 C, then streptavidin-agarose 1 h at 4 C; details: protein: recombinant; tags: GST; label: 5' biotin on S1 strand; blunt

GST-Sp1 (619–785)-T739D: mimic phosphorylation form of GST-Sp1 (619–785)
DNA-binding signal ([1]; purified GST-Sp1 proteins, four independent experiments): No significant difference in the DNA-binding signal

Sp1: transcription factor Sp1; endogenous or GFP-Sp1-WT expressed in HeLa cells
Sp1 interaction/co-localization with Pin1 (Pin1 [2]; anaphase (within 20–60 min of nocodazole release)): 93% | Sp1 interaction/co-localization with Pin1 (Pin1 [2]; metaphase (within 20–60 min of nocodazole release)): 91.4% | Sp1 interaction/co-localization with Pin1 (Pin1 [2]; prophase (within 20 min of nocodazole release)): 81.3%

GST-WW: recognition motif (WW domain) of Pin1
interaction with phospho-Sp1(T739) (mitotic Sp1): interacted with phospho-Sp1(T739) | effect on CDK1-mediated Sp1 phosphorylation (CDK1/cyclin B1): but not Pin1-W34A and Pin1-WW, increased the signal

Pin1-W34A: Pin1 mutated in the recognition domain
interaction with mitotic Sp1 (mitotic Sp1): but not Pin1-W34A, interacted with mitotic Sp1 | effect on CDK1-mediated Sp1 phosphorylation (CDK1/cyclin B1): but not Pin1-W34A and Pin1-WW, increased the signal

Sp1-T739A: phosphorylation site mutated Sp1
interaction with Pin1 (Pin1 [3]): decreased interaction with Pin1

Sp1-4A: Sp1 mutant S720A, T723A, T737A and T739A
DNA-binding activity to the p21^CIP/WAP promoter ([1]; mitotic extract of HeLa cells, three independent experiments): increased its DNA-binding activity to the p21^CIP/WAP promoter | cells entered mitosis (HeLa cells): 62%

Thr739(p)-Sp1 peptide (from UniProt P08047 735-745)
Ka [4]: 7400 M⁻¹ | Kd [4]: 50 µM | dH [4]: -6.8 kcal/mol | stoichiometry N [4]: 0.93

Sp1 (from UniProt P08047) GFP-Sp1 T739A
binding against the reference (Pin1 [5]): weaker

Pin1: recombinant wild-type Pin1, peptidyl-prolyl isomerase
interaction with mitotic Sp1 (mitotic Sp1): interacted with mitotic Sp1 | interaction with phospho-Sp1(T739) (mitotic Sp1): interacted with phospho-Sp1(T739) | effect on CDK1-mediated Sp1 phosphorylation (CDK1/cyclin B1): increased the signal of CDK1-mediated Sp1 phosphorylation in a dose dependent manner | effect on JNK1 phosphorylation of Sp1 (JNK1): this phosphorylation remained unaffected

GST-Sp1 (619–785)-T739A: T739A mutant of GST-Sp1 (619–785)
phosphorylation by CDK1 (as substrate) (CDK1/cyclin B1): No signal was detected

Sp1 735-745 (from UniProt P08047) Thr739(p)-Sp1 peptide
other: Ka (Pin1 [6]): 7.4 M⁻¹

GST-Sp1 (619–785): truncated Sp1, wild-type C-terminal region
phosphorylation by CDK1 (as substrate) (CDK1/cyclin B1): phosphorylated by CDK1, albeit to a lesser extent

GST-Sp1 (619–715): truncated Sp1, amino acids 619–715
phosphorylation by CDK1 (as substrate) (CDK1/cyclin B1): No signal was detected

Sp1-T739D: mimic phosphorylated Sp1
interaction with Pin1 (Pin1 [3]): increased interaction with GST-Pin1

GST-Sp1 (619–740): truncated Sp1, C-terminus (741–785) ablated
phosphorylation by CDK1 (as substrate) (CDK1/cyclin B1): an increased phosphorylation signal was obtained

B1: p21WAF1/CIP1 promoter Sp1 probe (-82 to -50) (dsDNA)
DNA 1: CCCGCCTCCTTGAGGCGGGCCCGGGCGGGGCGG
DNA 2: CCGCCCCGCCCGGGCCCGCCTCAAGGAGGCGGG
binding result (GST-Sp1(619-785)): binds | binding result (GST-Sp1(619-785)-T739D): binds
